Source: ChEMBL document CHEMBL5608188, “Discovery of N'-benzyl-3-chloro-N-((1S,3R,4R)-3-((dimethylamino)methyl)-4-hydroxy-4-(3-methoxyphenyl)cyclohexyl)benzenesulfonamide as a novel selective KOR ligand” (Eur J Med Chem, 2024)
Active and inactive are the calls of the source. The rule behind the calls is not given here.

Experiments:
[1] = biological target: T1, Kappa-type opioid receptor (Homo sapiens, UniProt P41145); assay: Displacement of [3H] U69593 from human kappa-opioid receptor extracted from CHO cell membrane at 0.1 uM by liquid scintillation counting analysis relative to control; assay type: cell membranes
[2] = biological target: Delta-type opioid receptor (Rattus norvegicus) (UniProt P33533); assay: Displacement of [3H] DPDPE from rat delta-opioid receptor extracted from CHO cell membrane at 0.1 uM by liquid scintillation counting analysis relative to control; assay type: cell membranes
[3] = biological target: Mu-type opioid receptor (Rattus norvegicus) (UniProt P33535); assay: Displacement of [3H] DAMGO from rat mu-opioid receptor extracted from CHO cell membrane at 0.1 uM by liquid scintillation counting analysis relative to control; assay type: cell membranes
[4] = Metabolic stability in mouse liver microsomes assessed as half life at 1 uM measured upto 60 mins in presence of NADPH by LC-MS/MS analysis; assay type: ADME, Microsome
[5] = Metabolic stability in mouse liver assessed as intrinsic clearance at 1 uM measured upto 60 mins in presence of NADPH by LC-MS/MS analysis; assay type: ADME, tissue-based; details: read-out: CLH
[6] = Metabolic stability in mouse liver microsomes assessed as intrinsic clearance at 1 uM measured upto 60 mins in presence of NADPH by LC-MS/MS analysis; assay type: ADME, Microsome; details: read-out: CLH
[7] = biological target: T1, Kappa-type opioid receptor; assay: Displacement of [3H] U69593 from human kappa-opioid receptor extracted from CHO cell membrane assessed as inhibition constant by liquid scintillation counting analysis; assay type: cell membranes
[8] = biological target: Mu-type opioid receptor (Rattus norvegicus) (UniProt P33535); assay: (§1) Displacement of [3H] DAMGO from rat mu-opioid receptor extracted from CHO cell membrane assessed as inhibition constant by liquid scintillation counting analysis; assay type: cell membranes
[9] = Drug uptake in mouse plasma; assay type: ADME, cell-free
[10] = Metabolic stability in mouse liver microsomes assessed as parent compound remaining at 1 uM measured after 60 min in presence of NADPH by LC-MS/MS analysis; assay type: ADME, Microsome; details: read-out: Stability
[11] = Half-life in ICR mouse at 2 mg/kg, iv measured after 24 hrs; assay type: ADME, organism-based; details: in vivo
[12] = AUC (0 to t) in ICR mouse at 5 mg/kg, po measured after 24 hrs; assay type: ADME, organism-based; details: in vivo
[13] = AUC (0 to t) in ICR mouse at 2 mg/kg, iv measured after 24 hrs; assay type: ADME, organism-based; details: in vivo
[14] = Metabolic stability in mouse liver microsomes assessed as parent compound remaining at 1 uM measured after 5 min in presence of NADPH by LC-MS/MS analysis; assay type: ADME, Microsome; details: read-out: Stability
[15] = AUC (0 to infinity) in ICR mouse at 5 mg/kg, po measured after 24 hrs; assay type: ADME, organism-based; details: in vivo
Mus musculus [16] = assay: Antinociceptive activity in acetic acid induced female Kunming mouse model assessed as reduction in number of torsions preadministered with nor-BNI for 24 hrs followed by compound administration for 30 mins and measured after 15 mins of acetic acid administration by abdominal contraction test; assay type: functional, organism-based; details: time 45.0 min
Mus musculus [17] = assay: Antinociceptive activity in acetic acid induced female Kunming mouse model assessed as reduction in number of torsions preadministered for 30 mins followed by acetic acid administration and measured after 15 mins by abdominal contraction test; assay type: functional; details: 0.75 h, time 45 min
[18] = biological target: Delta-type opioid receptor (Rattus norvegicus) (UniProt P33533); assay: (§2) Displacement of [3H] DPDPE from rat delta-opioid receptor extracted from CHO cell membrane assessed as inhibition constant by liquid scintillation counting analysis; assay type: cell membranes
[19] = Metabolic stability in mouse liver microsomes assessed as parent compound remaining at 1 uM measured after 30 min in presence of NADPH by LC-MS/MS analysis; assay type: ADME, Microsome; details: read-out: Stability
[20] = Half-life in ICR mouse at 5 mg/kg, po measured after 24 hrs; assay type: ADME, organism-based; details: in vivo
[21] = Tmax in ICR mouse at 5 mg/kg, po measured after 24 hrs; assay type: ADME, organism-based; details: in vivo
[22] = Toxicity in male Kunming mouse assessed as effect on sedation at 1.3 to 10 mg/kg, IP administered for 30 mins and measured after 1 hrs by open field test; assay type: organism-based; details: in vivo, 1.5 h, dose 1.3-10 mg/kg, time 90 min
[23] = Tmax in ICR mouse at 2 mg/kg, iv measured after 24 hrs; assay type: ADME, organism-based; details: in vivo
[24] = Metabolic stability in mouse liver microsomes assessed as parent compound remaining at 1 uM measured after 15 min in presence of NADPH by LC-MS/MS analysis; assay type: ADME, Microsome; details: read-out: Stability
[25] = Cmax in ICR mouse at 2 mg/kg, iv measured after 24 hrs; assay type: ADME, organism-based; details: in vivo
[26] = Cmax in ICR mouse at 5 mg/kg, po measured after 24 hrs; assay type: ADME, organism-based; details: in vivo
[27] = Oral bioavailability in ICR mouse at 5 mg/kg measured after 24 hrs; assay type: ADME, organism-based; details: in vivo
[28] = AUC (0 to infinity) in ICR mouse at 2 mg/kg, iv measured after 24 hrs; assay type: ADME, organism-based; details: in vivo
[29] = Clearance in ICR mouse at 2 mg/kg, iv measured after 24 hrs; assay type: ADME, organism-based; details: in vivo
[30] = biological target: Delta-type opioid receptor (Rattus norvegicus, UniProt P33533); assay: as §2; assay type: cell membranes
Mu-type opioid receptor = Mu-type opioid receptor (Rattus norvegicus, UniProt P33535); assay: as §1; assay type: cell membranes
[31] = biological target: T1, Kappa-type opioid receptor; assay: Binding affinity to human kappa-opioid receptor extracted from CHO cell membrane assessed as inhibition constant incubated for 60 mins in presence of [3H]U69593 by radioligand binding assay; assay type: cell membranes

T1 sequence (P41145 whole entry): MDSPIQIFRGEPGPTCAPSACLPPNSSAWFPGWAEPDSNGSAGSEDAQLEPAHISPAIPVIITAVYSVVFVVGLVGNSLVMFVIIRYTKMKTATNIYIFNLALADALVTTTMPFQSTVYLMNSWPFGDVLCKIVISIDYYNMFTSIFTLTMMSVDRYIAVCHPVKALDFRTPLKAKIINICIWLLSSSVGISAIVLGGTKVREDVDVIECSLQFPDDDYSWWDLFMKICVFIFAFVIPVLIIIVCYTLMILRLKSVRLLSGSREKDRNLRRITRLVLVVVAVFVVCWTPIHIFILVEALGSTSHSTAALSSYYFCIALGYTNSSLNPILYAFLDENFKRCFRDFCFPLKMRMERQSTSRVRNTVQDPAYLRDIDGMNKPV
Chain of Mu-type opioid receptor (Rattus norvegicus) (P33535 whole entry): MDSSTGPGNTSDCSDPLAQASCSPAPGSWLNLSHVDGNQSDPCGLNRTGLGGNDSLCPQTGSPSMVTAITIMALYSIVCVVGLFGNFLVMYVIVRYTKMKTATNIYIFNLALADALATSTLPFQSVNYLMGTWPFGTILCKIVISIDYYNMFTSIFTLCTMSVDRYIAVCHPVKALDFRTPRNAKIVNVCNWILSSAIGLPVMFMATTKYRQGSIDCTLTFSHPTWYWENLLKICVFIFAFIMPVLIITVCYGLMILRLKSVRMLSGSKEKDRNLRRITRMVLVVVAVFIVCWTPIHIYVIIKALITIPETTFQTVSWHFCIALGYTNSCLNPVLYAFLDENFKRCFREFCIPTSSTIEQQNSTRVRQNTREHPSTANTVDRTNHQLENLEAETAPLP
Chain of Delta-type opioid receptor (Rattus norvegicus) (P33533 whole entry): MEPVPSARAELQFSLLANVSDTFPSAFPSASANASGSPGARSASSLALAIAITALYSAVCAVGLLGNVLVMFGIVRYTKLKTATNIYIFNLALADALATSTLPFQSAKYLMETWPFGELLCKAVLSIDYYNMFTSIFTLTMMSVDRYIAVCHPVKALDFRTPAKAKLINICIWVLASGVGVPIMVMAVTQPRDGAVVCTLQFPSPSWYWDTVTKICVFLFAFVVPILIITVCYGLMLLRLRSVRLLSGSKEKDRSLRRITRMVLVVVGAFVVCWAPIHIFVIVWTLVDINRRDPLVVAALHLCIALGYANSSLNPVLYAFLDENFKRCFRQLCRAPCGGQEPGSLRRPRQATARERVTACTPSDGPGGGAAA
Chain of Mu-type opioid receptor (P33535 whole entry): as the sequence (P33535 whole entry) above
Chain of Delta-type opioid receptor (P33533 whole entry): as the sequence (P33533 whole entry) above

## COc1cccc(C2(OC(=O)c3ccccc3)CCC(NS(=O)(=O)c3ccccc3)CC2CN(C)C)c1 (centres undefined)
[1]
  inhibition: 12.9%
[2]
  inhibition: 0%
[3]
  inhibition: 18.1%

## COc1cccc(C2(O)CCC(N(Cc3ccccc3)S(=O)(=O)c3cccc(Cl)c3)CC2CN(C)C)c1 (centres undefined)
[2]
  inhibition: 0%
[3]
  inhibition: 6.7%

## COc1cccc(C2(OC(=O)c3ccccc3)CCC(N(C)S(=O)(=O)Cc3cccc(Cl)c3)CC2CN(C)C)c1 (centres undefined)
[1]
  inhibition: 16.6%
[2]
  inhibition: 0%
[3]
  inhibition: 0%

## COc1cccc(C2(O)CCC(N(Cc3ccccc3)S(=O)(=O)c3cccs3)CC2CN(C)C)c1 (centres undefined)
[1]
  inhibition: 14.9%
[2]
  inhibition: 0%
[3]
  inhibition: 9.5%

## COc1cccc(C2(O)CCC(NS(=O)(=O)c3cccs3)CC2CN(C)C)c1 (centres undefined)
[1]
  inhibition: 15.2%
[2]
  inhibition: 0%
[3]
  inhibition: 1.2%

## O=C(O)Cc1ccccc1Nc1c(Cl)cccc1Cl [DICLOFENAC]
[4]
  half-life at 1 µM: 47.1 min
[5]
  CLint scaled at 1 µM: 116 mL/min/kg
[6]
  microsomal CLint at 1 µM: 29.4 µL/min/mg

## COc1cccc(C2(O)CCCCC2CN(C)C)c1 (centres undefined)
[1]
  inhibition: 0%
[2]
  inhibition: 0%
[3]
  inhibition: 6%

## COc1cccc(C2(O)CCC(N(C)S(=O)(=O)c3cccs3)CC2CN(C)C)c1 (centres undefined)
[1]
  inhibition: 22%
[2]
  inhibition: 30.1%
[3]
  inhibition: 0%

## COc1cccc([C@]2(O)CC[C@@H](N(Cc3ccccc3)S(=O)(=O)c3cccc(Cl)c3)C[C@H]2CN(C)C)c1
[7]
  Activity: inactive
[8]
  Activity: inactive

## COc1cccc(C2(OC(=O)c3ccccc3)CCC(N(C)S(=O)(=O)Cc3ccccc3)CC2CN(C)C)c1 (centres undefined)
[1]
  inhibition: 28.8%
[2]
  inhibition: 0%
[3]
  inhibition: 3.3%

## COc1cccc([C@@]2(O)CC[C@H](N(Cc3ccccc3)S(=O)(=O)c3cccc(Cl)c3)C[C@@H]2CN(C)C)c1.Cl
[9]
  Drug uptake: Active
[4]
  half-life at 1 µM: 3.95 min
[5]
  CLint scaled at 1 µM: 1390 mL/min/kg
[10]
  remaining at 1 h, 1 µM: 4.59%
[11]
  half-life: 71.4 min
[12]
  AUC(0-t) at 24 h: 1.34 ng·h/mL
[13]
  AUC(0-t) at 24 h: 131 ng·h/mL
[14]
  remaining at 5 min, 1 µM: 29%
[15]
  AUC(0-inf): 1.64 ng·h/mL
Mus musculus [16]
  Activity: inactive
Mus musculus [17]
  ED50: 1.3 mg/kg
[3]
  inhibition: 25.8%
[7]
  Ki: 1.9 nM
[6]
  microsomal CLint at 1 µM: 351 µL/min/mg
[18]
  Activity: inactive
[19]
  remaining at 0.5 h, 1 µM: 5.89%
[20]
  half-life: 16.2 min
[21]
  Tmax: 4.98 min
[22]
  Activity: Non-Toxic
[23]
  Tmax: 4.98 min
[24]
  remaining at 0.25 h, 1 µM: 6.7%
[25]
  Cmax: 221 ng/mL
[26]
  Cmax: 3.87 ng/mL
[27]
  bioavailability: 0.53%
[28]
  AUC(0-inf): 136 ng·h/mL
[29]
  clearance: 246 mL/min/kg

## COc1cccc(C2(O)CCC(N(C)S(=O)(=O)c3ccccc3)CC2CN(C)C)c1 (centres undefined)
[1]
  inhibition: 15.3%
[2]
  inhibition: 12.9%
[3]
  inhibition: 38.6%

## CN(C)CC1CC(N(Cc2ccccc2)S(=O)(=O)c2cccc(Cl)c2)CCC1(O)c1cccc(O)c1.Cl (centres undefined)
[9]
  Drug uptake: Active
[2]
  inhibition: 20.7%
[7]
  Ki: 3.1 nM
[30]
  Ki: 201 nM
Mu-type opioid receptor
  Ki: 18.8 nM

## COc1cccc(C2(O)CCC(N(Cc3ccccc3)S(=O)(=O)c3ccccc3)CC2CN(C)C)c1 (centres undefined)
[1]
  inhibition: 39.7%
[2]
  inhibition: 0%
[3]
  inhibition: 14.8%

## CN(C)C[C@@H]1CN(CCc2cccc(C(F)(F)F)c2)CC[C@@]1(O)c1cccc(O)c1
[31]
  Ki: 25.8 nM

## COc1cccc(C2(O)CCC(NS(=O)(=O)Cc3cccc(Cl)c3)CC2CN(C)C)c1 (centres undefined)
[1]
  inhibition: 6.9%
[2]
  inhibition: 0%
[3]
  inhibition: 35.8%

## COc1cccc(C2(O)CCC(NS(=O)(=O)c3cccc(Cl)c3)CC2CN(C)C)c1 (centres undefined)
[1]
  inhibition: 15%
[2]
  inhibition: 0%
[3]
  inhibition: 22.8%

## COc1cccc(C2(O)CCC(NS(=O)(=O)c3ccccc3)CC2CN(C)C)c1 (centres undefined)
[1]
  inhibition: 7.2%
[2]
  inhibition: 7.51%
[3]
  inhibition: 11.8%

## COc1cccc(C2(O)CCC(NS(=O)(=O)Cc3ccccc3)CC2CN(C)C)c1 (centres undefined)
[1]
  inhibition: 11.2%
[2]
  inhibition: 1%
[3]
  inhibition: 41.1%

## COc1cccc(C2(OC(=O)c3ccccc3)CCC(NS(=O)(=O)c3cccc(Cl)c3)CC2CN(C)C)c1 (centres undefined)
[1]
  inhibition: 30.5%
[2]
  inhibition: 0%
[3]
  inhibition: 14.4%

## COc1cccc(C2(O)CCC(N(C)S(=O)(=O)c3cccc(Cl)c3)CC2CN(C)C)c1 (centres undefined)
[1]
  inhibition: 22.7%
[2]
  inhibition: 14.8%
[3]
  inhibition: 16.5%
